{"source": "patent US20070225253A1", "about": "“Use of a trioxopyrimidine for the treatment and prevention of bronchial inflammatory diseases” (priority 2004, published 2007)", "key": {"[1]": {"biological_target": "T1, Human MMP-1 (Homo sapiens, UniProt P03956)", "T1 sequence (P03956 100-469)": "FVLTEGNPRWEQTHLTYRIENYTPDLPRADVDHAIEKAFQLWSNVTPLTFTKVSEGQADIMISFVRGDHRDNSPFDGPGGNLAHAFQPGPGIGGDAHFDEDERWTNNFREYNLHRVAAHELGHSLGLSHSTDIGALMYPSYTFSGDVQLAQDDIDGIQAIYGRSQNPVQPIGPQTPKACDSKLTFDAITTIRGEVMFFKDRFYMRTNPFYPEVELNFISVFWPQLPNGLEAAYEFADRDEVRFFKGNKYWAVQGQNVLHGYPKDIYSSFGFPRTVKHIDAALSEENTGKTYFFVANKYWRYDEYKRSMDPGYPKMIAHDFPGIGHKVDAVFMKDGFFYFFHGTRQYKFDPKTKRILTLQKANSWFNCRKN", "assay": "MMP enzymatic activity, modified fluorescence assay (DNP-substrate)", "assay_type": "biochemical", "procedure": "(§1) IC50 values are measured by an in vitro assay for MMP enzymatic activity. […] This assay is based on the determination of MMP enzymatic activity on a dinitrophenol substrate and fluorescence measurement of the substrate after cleaving by MMPs.\n(§2) Human MMP-1, MMP-2, MMP-3, MMP-9 and MMP-14 are commercially available (e.g. Calbiochem). The pro-enzymes were activated with 1 mM APMA (incubation for 30 min at 37° C.) immediately before testing. Activated enzyme is diluted to 100 ng/ml in incubation buffer (50 mM Tris, 100 mM NaCl, 10 mM CaCl2, pH 7.6). The compounds were dissolved in 100% DMSO.\n(§3) The test tube contains 970 μl incubation buffer, 10 μl inhibitor solution and 10 μl enzyme solution. The reaction was started by adding the 10 μl substrate solution."}, "[2]": {"biological_target": "T2, Human MMP-2 (Homo sapiens, UniProt P08253)", "T2 sequence (P08253 110-660)": "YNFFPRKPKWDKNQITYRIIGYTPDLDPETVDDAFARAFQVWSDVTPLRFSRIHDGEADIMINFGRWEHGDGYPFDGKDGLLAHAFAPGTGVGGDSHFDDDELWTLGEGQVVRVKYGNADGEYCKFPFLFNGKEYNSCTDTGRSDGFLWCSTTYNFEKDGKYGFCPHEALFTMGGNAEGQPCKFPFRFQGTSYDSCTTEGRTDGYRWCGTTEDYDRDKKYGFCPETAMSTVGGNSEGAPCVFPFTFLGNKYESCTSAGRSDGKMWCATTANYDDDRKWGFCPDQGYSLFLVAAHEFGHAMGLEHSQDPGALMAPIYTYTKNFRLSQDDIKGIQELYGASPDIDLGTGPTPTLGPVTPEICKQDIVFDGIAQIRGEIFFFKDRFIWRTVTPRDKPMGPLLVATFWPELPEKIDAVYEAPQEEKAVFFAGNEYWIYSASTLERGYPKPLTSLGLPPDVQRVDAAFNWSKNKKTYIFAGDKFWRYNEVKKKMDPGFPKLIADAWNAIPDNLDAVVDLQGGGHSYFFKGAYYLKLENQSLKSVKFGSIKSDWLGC", "assay": "MMP enzymatic activity, modified fluorescence assay (DNP-substrate)", "assay_type": "biochemical", "procedure": "as §1, §2, §3"}, "[3]": {"biological_target": "Human MMP-3 (Homo sapiens, UniProt P08254)", "sequence (P08254 100-477)": "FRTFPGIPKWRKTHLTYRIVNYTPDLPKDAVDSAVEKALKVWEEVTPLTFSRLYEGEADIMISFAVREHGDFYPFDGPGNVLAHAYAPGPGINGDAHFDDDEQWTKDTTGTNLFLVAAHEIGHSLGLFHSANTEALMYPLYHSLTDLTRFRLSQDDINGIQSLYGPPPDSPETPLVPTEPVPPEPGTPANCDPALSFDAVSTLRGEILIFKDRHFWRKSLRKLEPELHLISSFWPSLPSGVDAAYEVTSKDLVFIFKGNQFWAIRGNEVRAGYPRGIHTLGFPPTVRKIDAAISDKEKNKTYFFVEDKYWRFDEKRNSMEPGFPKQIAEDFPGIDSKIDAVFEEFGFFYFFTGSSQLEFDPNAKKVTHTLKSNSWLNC", "assay": "MMP enzymatic activity, modified fluorescence assay (DNP-substrate)", "assay_type": "biochemical", "procedure": "as §1, §2, §3"}, "[4]": {"assay": "Pharmacokinetics after intravenous administration to sheep", "assay_type": "in vivo", "settings": "I.V. solution, 5 mg/kg", "procedure": "The Compound I/HP-β-CD intravenous solution was obtained by dissolving CompoundI (10 mg/ml) in a solution containing HP-β-CD (200 mM), L-lysine (20 mM) and water for injection. The osmolality (about 325 mOsmol/kg) and the pH (about 8.2) values of this solution are compatible with an intravenous injection. The solution was sterilized by passing through a sterile 0.20 μm cellulose acetate filter under aseptic conditions.\nSix healthy sheep (2 males and 4 females) ranging from 45 to 82 kg of body weight were used as experimental animals. During the test, the animals were fed and watered ad libitum.\nThe experimental study, which was realized following the scheme of Table 3, included a randomized two-way cross-over design for oral administration followed by an intravenous administration. A wash-out period of 3 weeks was allowed between each administration.\nFor the intravenous dosage form, all six sheep received 5 mg of Compound I/kg of body weight. The solution was administered through the left jugular vein and blood samples were taken from the right jugular vein before and 5, 10, 15, 20, 30, 45 min, 1, 1.5, 2, 3, 4, 5, 6, 8, 10, 12, 24, 28, 32, 48, 72, 96, 120, 144, 168 h after starting the intravenous administration.\nAll blood samples were centrifuged and the serum were stored at −80° C. until assayed.\nA fully automated method was developed for the LC determination of this compound in serum. Sample clean-up was performed by on-line coupling of a pre-column packed with restricted access material (RAM), namely LiChrospher RP-8ADS (alkyl diol silica), to the analytical column by means of the column-switching technique. The ADS sorbents belong to the group of internal surface reversed-phase supports and have been applied successfully for the clean-up of biological samples prior to LC analysis (Yu, Z., and Westerlund, D., Chromatographia 44 (1997) 589-594; Hubert, Ph., et al., S. T. P. Pharma Pratiques 9 (1999) 160-180; Souverain, S., et al., Journal of Chromatography B 801 (2004) 141-156). The operating conditions are described in a previous paper (Chiap, P., et al., Journal of Chromatography B 817 (2005), 109-117). The method was fully validated according to a novel approach based on accuracy profiles taking into account the total measurement error (Hubert, P., et al., Analytica Chimica Acta 391 (1999) 135-148; Hubert, Ph., et al., S. T. P. Pharma Pratiques 13 (2003) 27-64; Hubert, Ph., et al., J Pharm Biomed. Anal. 36 (2004) 579-586.\nFor the bioanalytical study, the dosing range of the method had to be increased until 50 μg/ml due to high concentrations to be determined. A partial revalidation was performed and good results were obtained with respect to response function, trueness, precision, accuracy and linearity.\nFor the intravenous administration study, the pharmacokinetic parameters were determined for each animal using a linear two-compartment model with first-order distribution and elimination (Boroujerdi, M., Pharmacokinetics, Principles and Applications. McGrow-Hill Companies, USA, 2002). The areas under the curve values (AUCs0-168) were calculated by linear trapezoidal rule during the sampling period. The AUC extrapolated until infinite values (AUCs0-∞), the total body clearance values (Clt), the biologic half-life (T1/2β) and the overall volume of distribution (Vdt) were calculated using conventional equations associated with compartmental analysis (Boroujerdi, M., Pharmacokinetics, Principles and Applications, McGrow-Hill Companies, USA, 2002)."}}}
{"smiles": "O=C1NC(=O)C(c2ccc(-c3ccccc3)cc2)(N2CCN(c3ccc([N+](=O)[O-])cc3)CC2)C(=O)N1", "note": "[Compound I, 5-Biphenyl-4-yl-5-[4-(4-nitro-phenyl)-piperazin-1-yl]pyrimidine-2,4,6-trione]", "values": [{"measurement": "IC50", "setting": "[1]", "result": 53, "unit": "µM"}, {"measurement": "IC50", "setting": "[2]", "result": 0.065, "unit": "µM"}, {"measurement": "IC50", "setting": "[3]", "result": 3.5, "unit": "µM"}, {"measurement": "distribution phase", "setting": "[4]; sheep", "result": "about 30 minutes"}, {"measurement": "AUC(0-inf)", "setting": "[4]; both sexes, serum, iv, sheep n = 6, mean ± S.D.", "result": "859 ± 212", "unit": "µg·h/mL"}, {"measurement": "AUC(0-t)", "setting": "[4]; both sexes, serum, iv, sheep n = 6, mean ± S.D., read-out: AUC0-168 h", "result": "858 ± 212", "unit": "µg·h/mL"}, {"measurement": "clearance", "setting": "[4]; both sexes, sheep, serum, iv, sheep n = 6, mean ± S.D., read-out: Clt (total body clearance) (converted)", "result": "~5.97", "unit": "mL/min"}, {"measurement": "half-life", "setting": "[4]; both sexes, sheep, serum, iv, sheep n = 6, mean ± S.D., read-out: T1/2β (biologic half-life) (converted)", "result": "~15.5", "unit": "h"}, {"measurement": "Vd", "setting": "[4]; both sexes, sheep, serum, iv, sheep n = 6, mean ± S.D., read-out: Vdt (overall volume of distribution)", "result": "~8", "unit": "L"}]}
